{"source": "patent US20050287163A1", "about": "“Mycoplasma polypeptides” (priority 2002, published 2005)", "key": {"[1]": {"tested_on": "M. hyopneumoniae-induced [Ca2+]i increase in porcine ciliated tracheal cells", "assay": "Effect of pretreatment of tracheal cells on M. hyopneumoniae-induced [Ca2+]i increase", "assay_type": "cell-based", "protocol": "(§1) The following techniques were used to obtain [Ca^2+]i measurements in single cells. The tracheal cells were loaded with 4 μM fura-2 acetoxymethyl ester (fura-2AM) in Krebs-Ringer bicarbonate (KRB) buffer solution containing: 136 mM NaCl, 4.8 mM KCl, 1.5 mM CaCl2, 1.2 mM KH2PO4, 1.2 mM MgSO4, 10 mM HEPES, 5.5 mM glucose, and 0.1% BSA, pH 7.4 and incubated for 30 minutes at 37° C. The loaded cells were centrifuged (700× g, 2 minutes), then resuspended with KRB at a concentration of 500-1000 cells/mL. The tracheal cells loaded with fura-2AM were plated onto poly-lysine-coated coverslips in a custom-made Petri dish. The dish containing fura-2 loaded cells was mounted on the stage of an inverted fluorescence microscope (Carl Zeiss, NY). Only viable ciliated tracheal cells were focused on for the determination of [Ca^2+]i at 24° C. The fura-2 loaded porcine ciliated tracheal cells deteriorated quickly at 37° C. Fluorescence images were obtained (excitation wavelengths of 334 and 380 nm; emission wavelength of 510±20 nm) and used to generate spatially resolved maps of [Ca^2+]i by subtracting the background dividing the images on a pixel-by-pixel basis. The emitted signals were digitalized, recorded, and processed using the Attofluor digital fluorescence imaging system (Atto Instruments, Rockville, Md.). After reading fluorescence for 150 seconds, mycoplasmas were mixed with the cell system. [Ca^2+]i was calculated as previously described (Grynkiewicz et al., J. Biol. Chem., 260:3440-3450 (1985)). Calibration was performed in situ according to the procedure provided by Atto Instruments, using Fura-2 penta K^+ as a standard.\nTo investigate the pathway of Ca^2+ signaling, pertussis toxin (PTX, 100 ng/mL) was preincubated with tracheal cells for 3 hours. Cells were pretreated with thapsigargin (TG, 1 μM) for 30 minutes at 37° C. prior to the addition of the mycoplasmas to deplete the ER Ca^2+ store (Thastrup et al., Proc. Natl. Acad. Sci. USA, 87:2466-2470 (1990)). […] To confirm that mycoplasmas increased [Ca^2+]i by activating a Gi/o protein, Mas 7 (10 μM), an activator of this protein (Higashijima et al., J. Biol. Chem., 265:14176-14186 (1990)), was used to determine if it can increase [Ca^2+]i in tracheal cells. In addition, it was determined whether PTX can block the increase in [Ca^2+]i due to Mas 7."}, "[2]": {"tested_on": "porcine ciliated tracheal epithelial cells", "assay": "[Ca2+]i measurement in single fura-2 loaded ciliated tracheal cells", "assay_type": "cell-based", "protocol": "Tracheal cells were isolated as previously described (Young et al., Vet. Microbiol., 71:269-279 (1999)). Briefly, the tracheas were removed from 3-6 month old specific-pathogen-free pigs anesthetized with sodium pentobarbital using aseptic techniques. The ciliated cells were dissociated using 0.15% pronase and 0.01% DNase in Ca^2+- and Mg^2+-free MEM medium, which was incubated at 4° C. for 24 hours. The epithelial cells were collected by centrifugation at 125× g for 5 minutes. The cell pellets were resuspended in a mixture of DMEM (high glucose) and Ham's F-12 (1:1) media containing 5% FBS, 0.12 U/mL of insulin, and 100 U/mL of penicillin-streptomycin. Cell suspensions were transferred to 90-mm tissue culture dishes and incubated in 5% CO2 for 60-90 minutes to remove fibroblasts. The tracheal epithelial cells were stored in liquid nitrogen until use.\nas §1\nTo compare the [Ca^2+]i of tracheal cells response to pathogenic M. hyopneumoniae strain 91-3, avirulent M. hyopneumoniae, and M. flocculare, the cells were treated with the same concentration of 300 μg/mL. One to five ciliated single tracheal cells in each experiment were selected to investigate the [Ca^2+]i changes. The mycoplasmas were maintained on ice before being applied to tracheal cells.\nData on [Ca^2+]i were analyzed by ANOVA or by Student's t-test. The significance level was set at P<0.05."}, "[3]": {"tested_on": "Mas 7-induced [Ca2+]i increase in ciliated tracheal cells", "assay": "Effect of PTX pretreatment on Mas 7-induced [Ca2+]i increase", "assay_type": "cell-based, porcine", "conditions": "PTX pretreatment (100 ng/mL, 3 hours); Mas 7 10 μM", "protocol": "as §1, with “Only viable ciliated tracheal cells were focused on for the determination of [Ca^2+]i at 24° C. The fura-2 loaded porcine ciliated tracheal cells deteriorated quickly at 37° C.” left out, “Calibration was performed in situ according to the procedure provided by Atto Instruments, using Fura-2 penta K^+ as a standard.” left out"}, "[4]": {"tested_on": "Mhyo membrane-induced [Ca2+]i increase in ciliated tracheal cells", "assay": "Protease pretreatment of Mhyo membrane, effect on membrane-induced [Ca2+]i increase", "assay_type": "cell-based, porcine", "protocol": "FIG. 6 contains four graphs plotting [Ca^2+]i response in ciliated porcine tracheal cells inoculated with Mhyo membranes. Each trace indicates the [Ca^2+]i changes in each tracheal cell. The arrows indicate when administration occurred. (A) The membrane preparation (100 μg/mL) increased [Ca^2+]i. (B) Digestion with proteinase K blocked the membrane-induced increase in [Ca^2+]i. The membrane (100 μg/0.1 mL PBS) was incubated with proteinase K (2 μg) at 37° C. for 8 hours before it was applied to tracheal cells in 0.9 mL Krebs-Ringer bicarbonate (KRB) buffer. (C) Digestion with trypsin potentiated the membrane-induced increase in [Ca^2+]i. The membrane (100 μg/0.1 mL PBS) was incubated with trypsin (6 μg) at 37° C. for 30 minutes before it was applied to tracheal cells in 0.9 mL KRB. […] The soluble protein was prepared by subjecting the trypsinized membrane to ultracentrifigation (100,000× g, 60 minutes) to obtain the supernatant.\nMycoplasmas lack cell walls and have only one type of membrane, the plasma membrane (Razin S. (1993) Mycoplasma membranes as models in membrane research (Chapter 2), In: Subcellular Biochemistry. Vol 20: Mycoplasma Cell Membranes, edited by Rottem S, Kahane I. Plenum Press, New York. pp. 1-28). The Mhyo membrane was prepared by osmotic lysis of the organisms and tested to determine if it increased [Ca^2+]i in ciliated tracheal cells. […]"}, "[5]": {"tested_on": "guinea pig tracheal epithelia", "conditions": "trypsin 0.1 U/mL; cited from earlier work"}}, "note": "Entries after “also recorded” stand apart in the source; their conditions may differ."}
{"molecule": "COc1ccc2c(c1)CC[C@@H]1[C@@H]2CC[C@]2(C)[C@@H](NCCCCCCN3C(=O)C=CC3=O)CC[C@@H]12", "note": "[U-73122]", "values": [{"measurement": "effect on M. hyopneumoniae-induced [Ca2+]i increase", "setting": "[1]; pretreatment 2 μM, 100 seconds, U-73122", "result": "abolished; also recorded: prevented"}]}
{"molecule": "COc1ccc2c(c1)CC[C@@H]1[C@@H]2CC[C@]2(C)[C@@H](NCCCCCCN3C(=O)CCC3=O)CC[C@@H]12", "note": "[U-73343]", "values": [{"measurement": "cells that responded to mycoplasma with pretreatment", "setting": "[1]; U-73343 2 μM", "result": 82, "unit": "%"}, {"measurement": "peak [Ca2+]i after mycoplasma with pretreatment", "setting": "[1]; U-73343 2 μM, basal: 90±12 nM, 10 cells", "result": "330 ± 25", "unit": "nM"}, {"measurement": "effect on M. hyopneumoniae-induced [Ca2+]i response", "setting": "[1]; pretreatment 2 μM, inactive analogue U-73343", "result": "did not prevent"}]}
{"molecule": "C/C=C(/C)C(=O)O[C@H]1C(C)=C2[C@H]([C@@H]1OC(=O)CCCCCCC)[C@@](C)(OC(C)=O)C[C@H](OC(=O)CCC)[C@@]1(O)[C@H]2OC(=O)[C@@]1(C)O", "note": "[thapsigargin]", "values": [{"measurement": "effect on M. hyopneumoniae-induced [Ca2+]i increase", "setting": "[1]; pretreatment 1 μM, 30 minutes, mycoplasma 300 μg/mL", "result": "abolished"}]}
{"molecule": "Mastoparan 7", "values": [{"measurement": "[Ca2+]i after administration", "setting": "[2]; 10 μM, from basal level of 103±4 nM, n=9 cells", "result": "351 ± 24", "unit": "nM"}, {"measurement": "cells that responded", "setting": "[2]; Mas 7 10 μM", "result": 82, "unit": "%"}, {"measurement": "time to [Ca2+]i increase", "setting": "[2]; Mas 7 10 μM", "result": "≤ 100", "unit": "s"}, {"measurement": "effect on [Ca2+]i", "setting": "[2]; Mas 7 administration", "result": "increased"}]}
{"molecule": "pertussis toxin", "values": [{"measurement": "effect on M. hyopneumoniae-induced [Ca2+]i increase", "setting": "[1]; pretreatment 100 ng/mL, 3 hours", "result": "abolished"}, {"measurement": "effect on Mas 7-induced [Ca2+]i increase", "setting": "[3]", "result": "abolished"}]}
{"molecule": "trypsin", "values": [{"measurement": "effect of trypsin alone on [Ca2+]i", "setting": "[2]; trypsin alone at ≧1 U/mL", "result": "increase"}, {"measurement": "effect of trypsin pretreatment on membrane-induced [Ca2+]i increase", "setting": "[4]; pretreatment of the membrane for 30 minutes", "result": "potentiated"}, {"measurement": "effect of trypsin pretreatment on membrane-induced [Ca2+]i increase", "setting": "[4]; pretreatment of the membrane for 16 hours", "result": "failed to reduce"}, {"measurement": "effect on [Ca2+]i", "setting": "[5]", "result": "can increase"}]}
